Experimental data as given in article PMC12592420, “A mismatch in enzyme-redox partnerships underlies divergent cytochrome P450 activities between human hepatocytes and microsomes” (Communications Biology, 2025).
Values joined by “and” are separate entries in the source; they are usually repeats but may differ in a detail not shown here. Equal values may be shown once.

How the values were obtained:
[1] = Savolitinib metabolite (M2, M4) formation in NADPH-HLM (with BSA or cytosol where stated); format: in vitro ADME, human; parameters: [M4] / M2 average / M4 average: unit not given here; conditions: for M2 average: average of duplicate (Suppl. Fig. 1); for [M2]: savolitinib 1 µM
human hepatocytes (HH) [2] = assay: Savolitinib metabolite (M2, M4) formation in human hepatocytes, with and without CYP inhibitors; format: in vitro ADME; conditions: savolitinib 1 µM, intact HH
Procedure: […]120millioncells/[…] […] Authentic standards (M2 and M4) were spiked into hepatocytes (at 1 million cells/mL) and used to construct standard curves. Control marker reactions (final 1 μM for each compound) specific for CYP1A2 (phenacetin to form paracetamol), CYP2C19 (S-mephenytoin to form 4-OH mephenytoin) and CYP2D6 (dextromethorphan to form dextrorphan) were incubated in the presence and absence of the specific inhibitors to confirm the expected enzyme inhibition. […] After a pre-incubation at 37 °C for 5 min, the reaction was started by adding the test compound. […] After centrifugation at 3000 × g for 10 min, 200 μL of the supernatant was mixed with 400 μL of water before analysis for metabolites.

[3] = Incubations in HLM + NADPH from the same donor pool as S9; format: in vitro ADME, human; conditions: HLM (same donors as S9) + NADPH, savolitinib 1 µM, 1 h (Fig. 6aii)
From the text: Liver S9 (lot 1810001, pool of 50, Xenotech) and HLM (pool of 50, lot 1810003, Xenotech) from the same pool of donors were purchased from Xenotech.

human hepatocytes (HH) [4] = assay: Savolitinib metabolite (M2, M4) formation in human hepatocytes, with and without CYP inhibitors; format: in vitro ADME; conditions: savolitinib 5 µM, 1 h, only peak above this level
[5] = healthy volunteers, N-demethylation to M2; cited from earlier work
[6] = Incubations in human liver S9 + NADPH (same donor pool as HLM); format: in vitro ADME; conditions: S9 + NADPH, savolitinib 1 µM, 1 h (Fig. 6aii)
[7] = Metabolism of savolitinib in lysed hepatocytes + NADPH; format: in vitro ADME, human; conditions: savolitinib 1 µM, HH lysate + NADPH
Procedure: HH in Leibovitz buffer were centrifuged at 11,250 × g for 5 min to pellet the cells. Taking care not to disturb the pellet, all the media was removed using a pipette. Ice-cold water was added and the mixture vortex-mixed to resuspend the cells and stored at −80 °C for 5 min followed by sonication for 10 min to lyse the cells. The resuspended lysate final volume was equivalent to a final cell concentration of 1 million cells/mL (the same concentration used for intact cells experiments) in […] phosphate buffer pH 7.4 and NADPH (final 1 mM). After pre-incubating for 5 min at 37 °C, the reaction (metabolism of savolitinib) in the lysate was initiated by adding savolitinib (final 1 µM). […] Authentic standards (M2 and M4) were spiked into hepatocyte lysate and used to construct standard curves. The acetonitrile/hepatocyte lysate mixtures were centrifuged at 3000 × g for 10 min and 50 µl of the supernatant was mixed with 300 µl of water and 3 µL was injected into the mass spectrometer for analysis by multiple reaction monitoring.

M2 average ([1]; 60min, cytosol 0 mg/mL): 12.95 and 12.75 and 12.25
M2 average ([1]; 60min, cytosol 4 mg/mL): 10.25 and 10.45 and 11.2
M2 average ([1]; 60min, cytosol 10 mg/mL): 7.45 and 7.9 and 8.9
[M2] ([1]; 1 h (Fig. 2e)): 9.4 nM and 16.7 nM and 13.4 nM
[M2] ([1]; 60min, cytosol 0 mg/mL, single measurements (Suppl. Fig. 1)): 13.1 and 12.8 and 12.6 and 12.9 and 11.7
[M2] (human hepatocytes (HH) [2]; 5 min (Fig. 2a, 6cii)): 1.4 nM and 2.2 nM and 2.25 nM
[M2] (human hepatocytes (HH) [2]; 10 min (Fig. 2a, 6cii)): 2.85 nM and 3.9 nM and 4.1 nM
[M2] (human hepatocytes (HH) [2]; 20 min (Fig. 2a, 6cii)): 6.15 nM and 6.85 nM and 7.4 nM
[M2] (human hepatocytes (HH) [2]; 40 min (Fig. 2a, 6cii)): 12.1 nM and 12.5 nM and 13.35 nM
[M2] (human hepatocytes (HH) [2]; 60 min (Fig. 2a, 6cii)): 15.75 nM and 16.75 nM and 16.5 nM
[M2] [3]: 12.05 nM and 12.7 nM and 9.9 nM
metabolite peak by UV detection (human hepatocytes (HH) [4]): greater than 1%
[M2] [6]: 6.15 nM and 6.3 nM and 4.1 nM
[M2] ([7]; 0 min (Fig. 6cii)): 0.25 nM and 0.2 nM
[M2] ([7]; 5 min (Fig. 6cii)): 1.7 nM and 2.55 nM and 1.8 nM
[M2] ([7]; 10 min (Fig. 6cii)): 3.5 nM and 5.15 nM and 3.8 nM
[M2] ([7]; 20 min (Fig. 6cii)): 6.7 nM and 10.4 nM and 7.3 nM
[M2] ([7]; 40 min (Fig. 6cii)): 11.35 nM and 17.1 nM and 12.4 nM
[M2] ([7]; 60 min (Fig. 6cii)): 15.15 nM and 22.05 nM and 17 nM
Structure (SMILES): C[C@@H](c1ccc2nccn2c1)n1nnc2ncc(-c3cn[nH]c3)nc21 [Compound M2]
[M2] ([1]; 60min, cytosol 4 mg/mL, single measurements (Suppl. Fig. 1)): 10.4 and 10.1 and 10.6 and 10.3 and 10.9 and 11.5
[M2] ([1]; 60min, cytosol 10 mg/mL, single measurements (Suppl. Fig. 1)): 7.5 and 7.4 and 8 and 7.8 and 8.5 and 9.3
metabolite, share of the dose [5]: 60 % of the dose
